Data taken from PMC7377376, “Drug targeting CYP2E1 for the treatment of early-stage alcoholic steatohepatitis” (PLoS ONE, 2020).

Legend:
[1] = system: ethanol-fed Wistar rats; test: Oxidative stress parameters in liver of ethanol-fed rats (Lieber-DeCarli diet); format: in vivo; set-up: GR activity reduction compared to disease group / increase of ethanol effect on GR activity / hydrogen peroxide amount reduced below the reference value: concentration or dose not given beside the values; details: rat liver; for reduction of ethanol effect on hydrogen peroxide: I-ol, I-an 0.4/4/40 mg/kg b.w., UDCA 40 mg/kg; for reduction of ethanol effect on hydrogen peroxide / hydrogen peroxide decrease compared to disease group / reduction of ethanol effect on reduced glutathione (GSH): oral; for reduction of ethanol effect on hydrogen peroxide / hydrogen peroxide decrease compared to disease group / reduction of ethanol effect on reduced glutathione (GSH) / SRA decrease compared to disease group: 10 weeks; for increase of ethanol effect on GR activity: as worded in Fig 3 legend; for GSH elevation compared to disease group / SRA decrease compared to disease group: average over 0.4/4/40 mg/kg b.w.; for SRA decrease compared to disease group: daily oral gavage; for reduction of ethanol effect on glutathione reductase (GR) activity: average over doses (UDCA 40 mg/kg); for GPx activity below the reference value in healthy animals: highest concentration (UDCA 40 mg/kg b.w.); for reduction of ethanol effect on glutathione peroxidase (GPx) activity: on average
Text: A total of 68 female Wistar rats (Institute of Pharmacology and Biochemistry Breeding House, Minsk, Belarus) aged 80–90 days and weighting 180–200 g at the beginning of the experiments were used in the study. Each rat group (n = 6–8) was housed in a separate cage and had free access to the liquid diet during the full study period. Prior to the study, the animals were habituated for seven days to the cage conditions and experimental handling. The rats were maintained in a controlled experimental environment (20–25°C, 40–50% humidity, 12 h light per day, room with a 12-h light/dark cycle).
Rats were divided into ten groups characterized by the diet and the test compounds (S1 Table). Group 1 is the first control group in which a normal solid standard diet was fed for 12 weeks. All other groups received the liquid Lieber-DeCarli (LDC) diet (S2 Table), which combines food and drink in a liquid manner. It was prepared by ssniff Spezialdiäten GmbH, Soest. The addition of maltodextrin to this diet should compensate the pure caloric effect of ethanol, whereby 1.77 g maltodextrin replaces 1 g ethanol. The calorie value of both the control and ethanol diets was the same: 35% calories from fat, 11% from carbohydrates, 18% from protein and 36% from ethanol.
In the first two weeks rats of all groups–with the exception of group 1 –were fed with LDC diet plus maltodextrin in an appropriate amount to adapt the animals to the liquid diet. Group 2 is the second control group in which the isocaloric diet was administered for further 10 weeks until the end of the experiment. […] The test compounds I-ol, I-an and UDCA were dissolved in a 0.8% aqueous HPMC gel to obtain the appropriate concentrations: (1) I-ol with 0.4, 4 and 40 mg/kg b. w. (2) I-an with 0.4, 4 and 40 mg/kg b. w. (3) UDCA with 40 mg/kg b. w. Rats of group 2 and 3 received only HPMC as a placebo. The LDC diets were fed ad libitum and their intake per cage was controlled daily. The corresponding bottles were stored in the cages from 08:00 a. m. until 06:00 p. m. and replaced by drinking water bottles overnight until 08:00 a. m. in the next morning. Every day at the same time, the test compounds or only HPMC were administered intragastrically by oral gavage with an administration volume of 2 ml/kg b. w. After ten weeks of treatment, the rats were anesthetized with an intraperitoneal injection of a 5% pentobarbital solution and then killed by aorta scarification. Their livers were dissected and liver pieces frozen and stored in liquid nitrogen. A part of the liver was fixed for histological investigations. Blood was collected before sacrifice, centrifuged for serum preparation and finally stored in liquid nitrogen.
The generation of reactive oxygen species (ROS) in rat liver was evaluated by NADPH-induced chemiluminescence with amplification by both luminol for the detection of superoxide (SRA) radical anion and lucigenin detecting hydrogen peroxide as described by Müller-Peddinhaus. In short, liver pieces were homogenized in 0.1 M sodium phosphate buffer pH 7.4. The homogenates were centrifuged at 9,000 x g at 0°C and aliquots were used for the measurement. Reduced glutathione (GSH) was determined by a modified Ellman`s method: 0.2 ml of the liver homogenates’ supernatant were added to 1.6 ml of an EDTA-/sodium […] solution. The absorbance was read at […] against blanks. GSH solution—prepared immediately before use—served as a standard. End products of the lipid peroxidation reaction are equivalent to TBARS (thiobarbituric acid-reacting substances) and their concentration was measured according to Buege et al.. The enzymatic activity of cytosolic glutathione peroxidase (GPx) and microsomal glutathione reductase (GR) were determined as described by Buko at al.. Catalase activity was evaluated by spectrophotometric measurement using hydrogen peroxide as a substrate according to Beers et al.. […]

[2] = target: T1, human cytochrome P450 2E1 (Homo sapiens, UniProt P05181); test: Steady-state p-nitrophenol oxidation, CYP2E1 inhibition in SUPERSOMES; format: biochemical
T1 construct: purchased BD Biosciences
Procedure: Initial velocities of the oxidation of p-nitrophenol (p-NP) to p-nitrocatechol by human cytochrome P450 2E1 were determined by measuring the absorption at 535 nm or 546 nm to determine product formation as described before.
Alternatively, 100 mM HEPES pH 7.6 was additionally used for the enzyme kinetic measurements. A final concentration of either 50 nM enzyme in form of SUPERSOMES™ from BD Biosciences or microsomes in case of cell culture experiments was added. Reaction was initiated by adding 500 μM (enzyme kinetic measurements) or 0.1 mM (cell culture experiments) NADPH after preincubation at 37° C and stopped by adding 20% trichloroacetic acid (TCA) after 30 minutes to ensure linearity of product formation. The protein concentration for the microsomal fraction was determined by Bradford assay to calculate the results expressed as units of specific activity defined as the amount of enzyme that consumes 1 μmol/L of NADPH per hour per microgram of protein. Inhibitor stock solutions were prepared in 0.1% DMSO and diluted to a final DMSO concentration of 0.003% in the reaction mixture at most to avoid enzyme inhibition by this solvent. Inhibitory constants (Ki) were calculated by non-linear fitting of initial velocities. Maximum inhibition could not be achieved since final inhibitor concentrations were limited by DMSO.
Supplementary file pone.0235990.s002.tif: S2 Fig CYP2E1 inhibition by data base inhibitors. To ascertain whether an imidazole containing compound is already commercially available and better suited for development as a drug can-didate, we performed a large virtual library screening of the ZINK database. We found 14,738 hits. The 5,261 commercially available compounds could be classified as 4,710 synthetic and 551 natural molecules. After docking and final scoring process, the seven best synthetic and the three best natural candidates were purchased and tested in vitro for their potential to inhibit CYP2E1 activity. Different concentrations of these compounds dissolved in DMSO were added to 110 μM p-Nitrophenol in 100 mM HEPES buffer pH 7.6 and SUPERSOMES™ with 50 nM human CYP 2E1 to calculate relative activity values. […] 20 μM corresponds to a DMSO volume of 0.02% (v/v). (TIF) Click here for additional data file.

[3] = average over 0.4/4/40 mg/kg b.w. (UDCA 40 mg/kg)

T1 sequence (P05181 whole entry): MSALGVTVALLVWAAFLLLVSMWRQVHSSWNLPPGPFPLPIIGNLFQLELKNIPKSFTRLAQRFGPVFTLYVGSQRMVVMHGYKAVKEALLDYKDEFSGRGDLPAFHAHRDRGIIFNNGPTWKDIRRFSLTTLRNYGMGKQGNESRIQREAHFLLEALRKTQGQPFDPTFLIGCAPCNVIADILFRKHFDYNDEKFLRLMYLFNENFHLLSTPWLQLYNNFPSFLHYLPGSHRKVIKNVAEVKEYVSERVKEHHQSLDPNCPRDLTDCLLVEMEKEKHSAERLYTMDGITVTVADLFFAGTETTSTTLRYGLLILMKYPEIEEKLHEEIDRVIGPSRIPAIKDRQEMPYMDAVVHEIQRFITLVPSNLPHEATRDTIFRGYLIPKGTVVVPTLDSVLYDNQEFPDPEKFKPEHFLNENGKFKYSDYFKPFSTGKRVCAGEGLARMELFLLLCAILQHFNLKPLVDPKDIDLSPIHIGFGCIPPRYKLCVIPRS

Compound	GR activity reduction compared to disease group [1]	hydrogen peroxide amount reduced below the reference value [1]	reduction of ethanol effect on hydrogen peroxide [1]	increase of ethanol effect on GR activity [1]	GSH elevation compared to disease group [1]	reduction of ethanol effect on TBARS [1, 3]	hydrogen peroxide decrease compared to disease group [1, 3]	reduction of ethanol effect on reduced glutathione (GSH) [1, 3]	SRA decrease compared to disease group [1]	GPx activity elevation compared to disease group ([1]; average over doses)	TBARS decrease compared to disease group ([1]; average over doses)	reduction of ethanol effect on glutathione reductase (GR) activity [1]	GSH value above the reference value of healthy animals ([1]; highest concentration)	TBARS level below the reference values of healthy animals ([1]; highest concentration)	GPx activity below the reference value in healthy animals [1]	reduction of ethanol effect on glutathione peroxidase (GPx) activity [1]	Ki value (in words) [2]	inhibitory effect on CYP2E1 (in words) ([2]; human CYP2E1 SUPERSOMES)	TBARS decrease compared to disease group ([1]; highest concentration)
CCCCCCCCCCCCn1ccnc1 [I-an, 1-Imidazolyldodecane]	11%	56%	completely reduced	43%	94%	93%	78%	55%	43%	10%	40%	43%	2%	31%	10%	completely reduced	nanomolar range	lower affinity	
OCCCCCCCCCCCCn1ccnc1 [I-ol]	10%		completely reduced	41%	62%		75%	36%	36%	17%		41%		11%	8%	completely reduced	nanomolar range		50%
